Assay results as given in patent US5504106A, “Phenyl amidine alkanoic acids and lactones useful as platelet aggregation inhibitors” (G. D. Searle & Co., priority 1994, dated 1996).
pIC50: −log10 of the molar value. Where “and” joins values, the source holds several entries; their conditions need not be identical. Equal entries are not always repeated. Structures can show the parent of a compound that is named as a salt.

System: Dog PRP
Test: In-Vitro Platelet Aggregation in PRP (ADP-induced)
Format: cell-based
Details: dog platelet-rich plasma, ADP-induced aggregation (50 μm final concentration), 37° C.; for Dog PRP % Inhibition: Test Concentration 1 × 10^-5; for pIC50: 1 minute preincubation, linear regression of dose response curve
Procedure: Healthy male or female dogs were fasted for 8 hours prior to drawing blood; then 30 ml whole blood was collected using a butterfly needle and 30 cc plastic syringe with 3 ml of 0.129M buffered sodium citrate (3.8%). The syringe was rotated carefully as blood was drawn to mix the citrate. Platelet-rich plasma (PRP) was prepared by centrifugation at 975× g for 3.17 minutes at room temperature, allowing the centrifuge to coast to a stop without braking. The PRP was removed from the blood with a plastic pipette and placed in a plastic capped, 50 ml Corning conical sterile centrifuge tube which was held at room temperature. Platelet poor plasma (PPP) was prepared by centrifuging the remaining blood at 2000× g for 15 minutes at room temperature allowing the centrifuge to coast to a stop without braking. The PRP was adjusted with PPP to a count of 2-3×10^8 platelets per ml. 400 μl of the PRP preparation and 50 μl of the compound to be tested as prepared below or saline were preincubated for 1 minute at 37° C. in a BioData aggregometer (BioData, Horsham, Pa.). 50 μl of adenosine 5'diphosphate (ADP) (50 μm final concentration) was added to the cuvettes and the aggregation was monitored for 1 minute. The test compounds were prepared by the following procedure. The compound was dissolved in 100% ethanol at a concentration of 10^-2 M. It was vortexed for 30 seconds followed by the addition of 1.1 equivalents of 1N NaOH. This solution was mixed for 30 minutes at room temperature. After the 30 minutes of mixing, the compound solution was brought to a working concentration of 10^-3 M with double distilled water. All compounds are tested in duplicate. Results are calculated as follows:
Percent of control= (maximal OD minus initial OD of compound) divided by (maximal OD minus initial OD of control saline)!×100. The % inhibition=100-(percent of control).
The assay results for the representative compounds of the present invention are set forth in Table A. Also in Table A, two readings given in a single box indicate that two trials, rather than a single trial, were run for that particular compound in that particular assay.

[1] = Canis lupus familiaris, Platelet

SMILES	Dog PRP % Inhibition	pIC50	pIC50 [1]
N=C(N)c1ccc(CCCCC2CCCC(=O)O2)cc1 (racemic) [6-4-(4-(aminoiminomethyl)phenyl)butyl)tetrahydro-2H -pyran-2-one]	29% and 38%		
COC(=O)CC1CC(=O)OC(CCCCc2ccc(C(=N)N)cc2)C1 (racemic) [(±)-cis-methyl 2-4-4-(aminoiminomethyl)phenyl!butyl!tetrahydro-6-oxo-2H-pyran-4-acetate]	100%	5.40	
N=C(N)c1ccc(CCCC[C@@H]2C[C@H](c3cccnc3)CC(=O)O2)cc1 (relative stereo) [(±)-cis-6-4-4-(Aminoiminomethyl)phenyl)butyl!tetrahydro-4-(3-pyridinyl)-2H-pyran-2-one, ditrifluoroacetate]	100%		6.80
C[C@@H]1CC(=O)O[C@H](CCCCc2ccc(C(=N)N)cc2)C1 (relative stereo) [(±)-cis-6-4-4-(Aminoiminomethyl)phenyl)butyl!tetrahydro-4-methyl-2H-pyran-2-one, trifluoroacetate]	74%		5.15
N=C(N)c1ccc(CCCC[C@@H]2C[C@H](c3ccccc3)CC(=O)O2)cc1 (relative stereo) [(±)-cis-6-4-4-(Aminoiminomethyl)phenyl)butyl!tetrahydro-4-phenyl-2H-pyran-2-one, trifluoroacetate]	100%		5.38
N=C(N)c1ccc(CCCC[C@@H]2C[C@H](CS(=O)(=O)c3ccccc3)CC(=O)O2)cc1 (relative stereo) [(±)-cis-6-4-4-(aminoiminomethyl)phenyl!butyl!tetrahydro-4-(phenylsulfonyl)methyl!-2H-pyran-2-one, trifluoroacetate]	100%		5.59
N=C(N)c1ccc(CCCC[C@@H]2C[C@H](O)CC(=O)O2)cc1 (relative stereo) [(±)-cis-6-4-4-Aminoiminomethyl)phenyl!butyl!tetrahydro-4-hydroxy-2H-pyran-2-one, trifluoroacetate]	89% and 96%	5.39	5.28
C=C[C@@H]1CC(=O)O[C@H](CCCCc2ccc(C(=N)N)cc2)C1 (relative stereo) [(±)-cis-6-4-(4-(Aminoiminomethyl)phenyl)butyl!-4-ethenyl-tetrahydro-2H-pyran-2-one, trifluoroacetate]	100%		5.59
N=C(N)c1ccc(CCCC[C@@H]2C[C@@H](c3ccccc3)CC(=O)O2)cc1 (relative stereo) [(±)-trans-6-4-4-(Aminoimino)phenyl)butyl!tetrahydro-4-phenyl-2H-pyran-2-one, trifluoroacetate]	7%		
N=C(N)c1ccc(CCCC[C@@H]2C[C@@H](O)CC(=O)O2)cc1 (relative stereo) [(±)-trans-6-4-4-(Aminoiminomethyl)phenyl!butyl!tetrahydro-4-hydroxy-2H-pyran-2-one, trifluoroacetate]	36%		
N=C(N)c1ccc(NC(=O)CC[C@@H]2C[C@H](O)CC(=O)O2)cc1 [N-4-(aminoiminomethyl)phenyl!3,4,5,6-tetrahydro-6-oxo-4S-hydroxy-2H-pyran-2R-propanamide, trifluoroacetate]			6.46
N=C(N)c1ccc(NC(=O)CCC2CCCC(=O)O2)cc1 (centres unmarked) [N-4-(aminoiminomethyl)phenyl!tetrahydro-6-oxo-2H-pyran-2-propanamide, trifluoroacetate]			5.54
